# Results published in patent US12384753B2, “17-beta-hydroxysteroid dehydrogenase type 13 inhibitors and methods of use thereof” (Enanta Pharmaceuticals, Inc., priority 2021, dated 2025).
# Target: Recombinant human HSD17B13 (Homo sapiens (Human), UniProt Q7Z5P4)
# Test: HSD17B13 rapid-fire mass spectrometry assay (RF/MS assay)
# Type: biochemical
# Settings: inhibition of HSD17B13; LTB4 10 μM, NAD+ 0.5 mM, RT 3 h; IC50 ranges A-E
# Text: HSD17B13 rapid-fire mass spectrometry assay (RF/MS assay). Recombinant human HSD17B13 was expressed and purified from sf9 cells at Charles River Labs (Saffron Walden, UK). Leukotriene B4 (Catalog #71160-24-2) and 12-oxoleukotriene B4 (Catalog #20140) were purchased from Cayman Chemicals (Ann Arbor, Michigan.). NAD+ (Catalog #N8285), BSA (Catalog #A7030), DMSO (Catalog #D2650), and Tween-20 (Catalog #11332465001) were purchased from Sigma (St. Louis, MO). Formic acid (Catalog #28905) was from ThermoFisher Scientific and 384 deep well PP microplates (Catalog #784261) were from Greiner Bio-One. In a typical IC50 assay performed in a 384w PP microplate, test compounds (0-100 μM) were incubated with HSD17B13 (80 nM), LTB4 (10 μM), and NAD^+ (0.5 mM) in 10 μL assay buffer (20 mM Tris (pH 7.5), BSA (0.005%), and Tween-20 (0.01%)) at RT for 3 h. The assays were quenched by adding 20 μL of 0.15% aqueous formic acid and the plates were frozen at −80° C. RF/MS analysis was performed at PureHoney Technologies (Billerica, MA) on a RapidFire RF300 system (Agilent Technologies, Inc.) coupled to an API 4000 triple quadrupole mass spectrometer (Sciex) equipped with Agilent RapidFire cartridge type A (C4). The mobile phase was 0.09% formic acid and 0.01% trifluoracetic acid in water (Buffer A) and 0.09% formic acid and 0.01% trifluoracetic acid in 80% aqueous acetonitrile (Buffer B). The RapidFire method conditions were the following: 250 ms aspirate, 3000 ms load/desalt, 4000 ms elute, and 500 ms re-equilibrate. RF-MS/MS was performed in negative polarity (−4500 V), the source temperature was 650° C., and gas 1 and gas 2 settings for nitrogen were set to 50. The curtain gas and collision gas were also nitrogen and were set to 20 and 12, respectively. Leukotriene B4 (335.3) and 12-oxoLeukotriene B4 (333.3) SRM transitions were optimized with Discovery Quant software and extracted ion counts for these analytes were determined.
# Data Analysis. HSD17B13 enzyme activity was measured as percent conversion of extracted ion counts and normalized to high and low controls to determine percent residual activity at various concentrations of test compounds. Data were fitted to normalized activity (variable slope) versus concentration fit in GraphPad Prism 7 to determine IC50. All experiments were run in duplicates.
# By using above method, the inhibition of HSD17B13 was evaluated for the compounds of Formula (I). IC50 ranges are as follows: A=IC50<0.100 μM; B=0.100 μM<IC50<0.500 μM; C=0.500 μM<IC50<1 μM; D=1 μM<IC50<100 μM; E=IC50>100 μM
# Sequence of Recombinant human HSD17B13 (Q7Z5P4 20-300): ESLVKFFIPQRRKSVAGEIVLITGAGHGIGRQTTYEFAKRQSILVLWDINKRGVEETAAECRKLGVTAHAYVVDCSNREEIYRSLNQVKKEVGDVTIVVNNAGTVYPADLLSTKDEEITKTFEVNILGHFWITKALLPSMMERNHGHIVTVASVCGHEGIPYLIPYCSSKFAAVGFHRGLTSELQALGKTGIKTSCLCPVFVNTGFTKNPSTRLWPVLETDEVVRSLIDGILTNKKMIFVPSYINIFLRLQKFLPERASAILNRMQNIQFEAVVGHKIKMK
row,IC50 [nM],Compound
1,1000 to 100000,Cn1nnnc1-c1ccc(NS(=O)(=O)c2cnc(-c3ccc(F)cc3)s2)cc1 [Example 35]
2,100 to 500,COc1cc(C(=O)O)ccc1NS(=O)(=O)c1cnc(-c2ccc(C3=CC4CCC3C4)cc2)s1 (centres unmarked) [Example 722]
3,100 to 500,CCCCOc1c(F)c(-c2nc(S(=O)(=O)Nc3cc(F)c(C(=O)O)cc3OC)cs2)ccc1[C@H]1CC[C@H](C(C)C)CC1 [Example 589]
4,500 to 1000,COc1cc(C(=O)O)ccc1NS(=O)(=O)c1csc(-c2ccccc2C)n1 [Example 125]
5,> 100000,O=S(=O)(Nc1ccccc1)c1csc(-c2ccccc2)n1 [Example 25]
6,< 100,COc1cc(C(=O)O)ccc1NS(=O)(=O)c1ccc(-c2cccc(F)c2)s1 [Example 208]
7,500 to 1000,"COc1ccc(-c2nc(S(=O)(=O)Nc3ccc(C(=O)O)cc3)cs2)cc1 [Example 56, 4-((2-(4-methoxyphenyl)thiazole)-4-sulfonamido)benzoic acid]"
8,1000 to 100000,COc1cc(C(=O)O)ccc1NS(=O)(=O)c1csc(N2CCC[C@@H](Cc3ccc(F)cc3)C2)n1 [Example 279]
9,100 to 500,COc1cc(C(=O)O)ccc1NS(=O)(=O)c1csc(-c2ccc(-c3ccccc3)c(F)c2)n1 [Example 302]
10,< 100,COc1cc(C(=O)O)ccc1NS(=O)(=O)c1csc(C#Cc2cccc(C)c2)n1 [Example 186]
11,100 to 500,COc1cc(C(=O)O)c(F)cc1NS(=O)(=O)c1csc(-c2cc(F)c(C3=CCC(C)(C)CC3)cc2F)n1 [Example 518]
12,100 to 500,"COc1cc(C(=O)O)ccc1NS(=O)(=O)c1csc(C2CCC(c3ccccc3)CC2)n1 (single isomer, unassigned) [Example 369]"
13,< 100,COc1cc(C(=O)O)c(F)cc1NS(=O)(=O)c1csc(-c2ccc([C@H]3CC[C@H](C(C)(C)C)CC3)cc2C(F)(F)F)n1 [Example 780]
14,100 to 500,"COc1cc(C(=O)O)ccc1NS(=O)(=O)c1cccc(-c2ccc(C3=CCC(C(C)(C)C)CC3)cc2)c1F (centres unmarked) [Example 477, 4-((4″-(tert-butyl)-2-fluoro-2″,3″,4″,5″-tetrahydro-[1,1′:4′,1″-terphenyl])-3-sulfonamido)-3-methoxybenzoic acid]"
15,100 to 500,COc1cc(C(=O)O)c(F)cc1NS(=O)(=O)c1coc(-c2ccc(C3CCCCC3)cc2)n1 [Example 497]
16,1000 to 100000,COc1cc(C(=O)O)ccc1NS(=O)(=O)c1ccc(-c2ccccc2O)s1 [Example 192]
17,< 100,COc1cc(C(=O)O)ccc1NS(=O)(=O)c1cnc(-c2ccc([C@H]3CC[C@H](C(F)(F)F)CC3)cc2)s1 [Example 713]
18,100 to 500,COc1cc(C(=O)O)ccc1NS(=O)(=O)c1cnc(-c2ccc(-c3ccc(C(F)(F)F)c(C(F)(F)F)c3)cc2)s1 [Example 710]
19,100 to 500,COc1cc(C(=O)O)c(F)cc1NS(=O)(=O)c1ccn(-c2ccc(C3CCC(C)(C)CC3)cc2)n1 [Example 690]

row,IC50 [nM],Compound
1,100 to 500,CCC[C@H]1CC[C@H](C2CC=C(c3nc(S(=O)(=O)Nc4ccc(C(=O)O)cc4OC)cs3)CC2)CC1 (some centres unmarked) [Example 373]
2,100 to 500,COc1cc(C(=O)O)ccc1NS(=O)(=O)c1csc(-c2ccc3c(c2)OCCO3)n1 [Example 462]
3,100 to 500,COc1cc(C(=O)O)ccc1NS(=O)(=O)c1coc(-c2ccc(C3CCC(C)(C)CC3)cc2)n1 [Example 420]
4,500 to 1000,O=C(O)c1ccc(NS(=O)(=O)c2cnc(-c3ccc(F)cc3)s2)cc1O [Example 107]
5,100 to 500,CC[C@H]1CC[C@H](c2ccc(-c3cnc(S(=O)(=O)Nc4cc(F)c(C(=O)O)cc4OC)s3)cc2)CC1 [Example 615]
6,100 to 500,CCCCOc1c(C2=CCC(C)(C)CC2)ccc(-c2nc(S(=O)(=O)Nc3cc(F)c(C(=O)O)cc3OC)cs2)c1F [Example 578]
7,100 to 500,COc1cc(C(=O)O)c(F)cc1NS(=O)(=O)c1csc(-c2ccc(C(F)(F)C(F)(F)F)cc2)n1 [Example 745]
8,< 100,COc1cc(C(=O)O)c(F)cc1NS(=O)(=O)c1csc(C#Cc2ccc(C(C)(C)C)cc2)n1 [Example 240]
9,1000 to 100000,O=C(O)c1ccc(NS(=O)(=O)c2cscn2)cc1 [Example 52]
10,1000 to 100000,COc1cc(C(=O)O)ccc1NS(=O)(=O)c1ccc(-c2ccc(C3CCCCC3)cc2)cn1 [Example 340]
11,100 to 500,COc1cc(C(=O)O)c(F)cc1NS(=O)(=O)c1csc(-c2ccc(-c3ccc(C4CCC(C(C)(C)C)CC4)cc3C(F)(F)F)cc2C(F)(F)F)n1 (centres unmarked) [Example 781]
12,1000 to 100000,O=C(O)c1ccc(S(=O)(=O)Nc2ccc(-c3nccs3)cc2)cc1 [Example 51]
13,1000 to 100000,COc1cc(C(=O)O)ccc1NS(=O)(=O)c1ccc(-c2csc(C)n2)cc1 [Example 298]
14,< 100,COc1cc(C(=O)O)c(F)cc1NS(=O)(=O)c1csc(-c2ccc([C@H]3CC[C@@H](C(F)(F)F)CC3)cc2C(F)(F)F)n1 [Example 606]
15,1000 to 100000,COc1cc(C(=O)O)ccc1NS(=O)(=O)c1c[nH]c2ccccc12 [Example 137]
16,1000 to 100000,COc1cc(NS(=O)(=O)c2cnc(-c3ccc(F)cc3)s2)ccc1C(=O)O [Example 22]
17,< 100,COc1cc(C(=O)O)c(F)cc1NS(=O)(=O)c1csc(-c2ccc(-c3ccc(C(F)(F)F)cc3)cc2)n1 [Example 740]
18,< 100,COc1cc(C(=O)O)c(F)cc1NS(=O)(=O)c1csc(-c2ccc(C3=CCC(C(F)(F)F)CC3)c(OC)c2F)n1 (centres unmarked) [Example 600]
19,1000 to 100000,COc1cc(C(=O)O)ccc1NS(=O)(=O)c1cccc(-c2ccccc2)c1 [Example 145]

row,IC50 [nM],Compound
1,1000 to 100000,O=C(O)c1cnc(NS(=O)(=O)c2cnc(-c3ccc(F)cc3)s2)cn1 [Example 90]
2,100 to 500,COc1ccc(C#Cc2nc(S(=O)(=O)Nc3ccc(C(=O)O)cc3OC)cs2)cc1 [Example 177]
3,< 100,COc1cc(C(=O)O)c(F)cc1NS(=O)(=O)c1coc(-c2ccc([C@H]3CC[C@@H](C(F)(F)F)CC3)cc2C(F)(F)F)n1 [Example 678]
4,1000 to 100000,COc1cc(C(=O)O)ccc1NS(=O)(=O)c1csc(N2CCN(c3nccs3)CC2)n1 [Example 264]
5,< 100,COc1cc(C(=O)O)c(F)cc1NS(=O)(=O)c1coc(-c2ccc(C3=CCC(C(C)C)CC3)cc2C(F)(F)F)n1 (centres unmarked) [Example 672]
6,< 100,COc1cc(C(=O)O)c(F)cc1NS(=O)(=O)c1ncc(-c2ccc(F)cc2)s1 [Example 614]
7,< 100,COc1cccc(-c2ccc(S(=O)(=O)Nc3ccc(C(=O)O)cc3OC)s2)c1 [Example 200]
8,< 100,COc1cc(C(=O)O)ccc1NS(=O)(=O)c1csc(-c2ccc(C3CCC(C(F)(F)F)CC3)cc2)n1 (centres unmarked) [Example 348]
9,1000 to 100000,COc1cc(C(=O)O)ccc1NS(=O)(=O)c1csc(Nc2ccccc2)n1 [Example 163]
10,1000 to 100000,COc1cc(C(=O)O)ccc1NS(=O)(=O)c1csc(N2CCCC(NCc3ccccc3)C2)n1 (centres unmarked) [Example 273]
11,< 100,"COc1cc(C(=O)O)ccc1NS(=O)(=O)c1cccc(-c2ccc([C@H]3CC[C@H](C(F)(F)F)CC3)cc2)c1F [Example 475, 4-((2-fluoro-4′-((1r,4r)-4-(trifluoromethyl)cyclohexyl)-[1,1′-biphenyl])-3-sulfonamido)-3-methoxybenzoic acid]"
12,< 100,COc1cc(C(=O)O)c(OC)cc1NS(=O)(=O)c1csc(-c2ccc(C3CCC(C)(C)CC3)cc2C(F)(F)F)n1 [Example 680]
13,< 100,COc1cc(C(=O)O)c(F)cc1NS(=O)(=O)c1csc(-c2ccc(C3=CCC(C(C)C)CC3)cc2)n1 (centres unmarked) [Example 774]
14,100 to 500,CC1(C)CCC(c2ccc(-c3nc(S(=O)(=O)Nc4ccc(C(=O)O)cc4)cs3)cc2)CC1 [Example 660]
15,< 100,COc1cc(C(=O)O)c(F)cc1NS(=O)(=O)c1csc(-c2ccc(-c3ccc4ncccc4c3)cc2)n1 [Example 639]
16,1000 to 100000,COc1cc(C(=O)O)ccc1NS(=O)(=O)c1csc(-c2ccc(-c3ccc(F)cc3)cc2)n1 [Example 296]
17,100 to 500,COc1cc(C(=O)O)c(F)cc1NS(=O)(=O)c1ccn(-c2ccc([C@H]3CC[C@@H](C(C)C)CC3)cc2)n1 [Example 693]
18,1000 to 100000,COc1cc(C(=O)O)ccc1NS(=O)(=O)c1csc(N2CCCC(c3ccc(C(F)(F)F)cc3)C2)n1 (centres unmarked) [Example 293]
